From US11938139B2, “Pharmaceutical compositions and methods for anxiety, depression and other psychiatric disorders” (LA PharmaTech Inc., priority 2019, dated 2024) come the findings set out here.

Structures are written as SMILES.

Common to all, as to format: in vivo, human
Test [1] has as its system patient with generalized anxiety disorder, panic disorder, and agitation. As to the kind of experiment: Clinical case, Example 1: patient. The note with it: person; fluoxetine alone 4 months, sertraline alone 6 months, alprazolam 2.0 mg/daily alone 4 months. From the text:
A patient had generalized anxiety disorder, panic disorder, and agitation. […] Because azelastine is approved for the treatment of allergic rhinitis and asthma and has never been used to treat patients with depression or anxiety, this dramatic clinical outcome from this composition is unexpected. […] This way of activating the GABA system may interact more effectively with other neurotransmitter systems, including noradrenergic, serotonergic, cholinergic, and opioidergic systems. […] This composition of two mechanisms of action for two different classes of diseases provided a new solution for treating psychiatric diseases which are incurable by other options, such traditional SSRIs, NSRIs, benzodiazepines, and the like alone.

Test [2] concerns patient with generalized anxiety disorder, agitation and insomnia. Description: Clinical case, Example 2: patient. The note with it: person; disorder for 8 months; alprazolam 2.0 mg/daily alone. From the text: The inventors believe the hypothesis as explained in example 1 above is applicable here as well. In this case, the composition of two mechanisms of action for two different classes of diseases provided a new solution for treating […] generalized anxiety diseases and agitation along with insomnia which could not be treated with other options, such traditional SSRIs, NSRIs, benzodiazepines, and the like alone.

The subject of test [3] is patient with major depressive disorder and agitation. As to the kind of experiment: Clinical case, Example 3: patient. The note with it: person; disorder for about 2 years; fluoxetine alone, alprazolam 2.0 mg/daily alone. From the text:
The inventors believe the hypothesis as explained in example 1 above is applicable here as well. In this case, the composition of two mechanisms of action for two different classes of diseases provided a new solution for treating […] major depressive disorder and agitation which could not be treated with other options, such traditional SSRIs, NSRIs, benzodiazepines, and the like alone.

For `Cc1nnc2n1-c1ccc(Cl)cc1C(c1ccccc1)=NC2` [alprazolam, 8-Chloro-1-methyl-6-phenyl-4H-s-triazolo(4,3-a)(1,4)benzodiazepine], the “clinical improvement with single-agent treatment” value (“clinical improvement” below) in test [1] is “no significant clinical improvement”. In addition, the “effectiveness of earlier treatment alone” value in test [2] is “no treatment had been effective”; in test [3], “no treatment, including fluoxetine alone from SSRIs or alprazolam (2.0 mg/daily) alone from benzodiazepines, had been effective”.
As for `CNCCC(Oc1ccc(C(F)(F)F)cc1)c1ccccc1` (stereo not drawn) [fluoxetine], the “clinical improvement” value in test [1] is on record as “no significant clinical improvement”. Further, the “effectiveness of earlier treatment alone” value in test [3] was “no treatment, including fluoxetine alone from SSRIs or alprazolam (2.0 mg/daily) alone from benzodiazepines, had been effective”.
With `CN[C@H]1CC[C@@H](c2ccc(Cl)c(Cl)c2)c2ccccc21` [sertraline], the “clinical improvement” value in test [1] was “no significant clinical improvement”.
